IC50 and EC50 data for 11 compounds are collected here from patent US20070099915A1, “INHIBITORS OF THE HIV INTEGRASE ENZYME” (PFIZER INC., priority 2005, published 2007).

pEC50, pIC50: −log10 of the molar value.

The target of assay [1] is T1, Full-length wild type HIV-1 integrase (SF1) (Human immunodeficiency virus type 1 group M subtype B, UniProt P04585).
T1 construct: made in house; host or cells: E. coli BL21 (DE3)
Briefly: Integrase strand-transfer scintillation proximity assay. It counts as biochemical. Particulars: strand-transfer SPA, 246 nM integrase, 50 nM host DNA, 37° C., 50 min; read-out: IC50. On the technique in general: Scintillation proximity formats need no separation of bound from free tracer.

The test system of assay [2] is HIV-1 RF virus in CEM-SS cells. The assay can be described thus: HIV-1 cell protection assay (XTT dye reduction). The assay is classed as cell-based. Particulars: Human immunodeficiency virus 1, 144 h; RF strain of HIV-1, CEM-SS cells, XTT read-out after six days; read-out: EC50. The procedure, abridged: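 Infected CEM-SS cultures incubated six days, then XTT with phenazine methosulfate added for 4 h; viability read as formazan absorbance at 450 nm. Formazan expressed as percent of uninfected, compound-free cells; CC50 from uninfected treated cells, therapeutic index as CC50/EC50.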
In general terms: Formazan colour is commonly taken as a measure of viable cells.

The pIC50 is the IC50 on a negative log10 scale, so that one unit is a factor of ten. Broadly, the pEC50 is the EC50 on a negative log10 scale, so that one unit is a factor of ten.

On to `CCn1ccnc1CN(C)Cc1cn(Cc2ccc(F)cc2)c2cnc3c(c12)CCN(O)C3=O` [Example 70, 1-{[[(1-ethyl-1H-imidazol-2-yl)methyl](methyl)amino]methyl}-3-(4-fluorobenzyl)-7-hydroxy-3,7,8,9-tetrahydro-6H-pyrrolo[2 3-c]-1,7-naphthyridin-6-one], for which, in assay [1], the pIC50 was 7.66. Further, the pEC50 in assay [2] was 7.37.
As to `CCN(C)Cc1cn(Cc2ccc(F)cc2)c2cnc3c(c12)CCN(O)C3=O` [Example 71, 1-{[ethyl(methyl)amino]methyl}-3-(4-fluorobenzyl)-7-hydroxy-3,7,8,9-tetrahydro-6H-pyrrolo[2,3-c]-1,7-naphthyridin-6-one], the pIC50 in assay [1] was 7.57. The pEC50 in assay [2] is 8.10.
Take `O=C1c2ncc3c(c(CN4C[C@@H](F)[C@H](F)C4)cn3Cc3ccc(F)cc3)c2CCN1O` [Example 72, 1-{[(3R,4R)-3,4-difluoropyrrolidin-1-yl]methyl}-3-(4-fluorobenzyl)-7-hydroxy-3,7,8,9-tetrahydro-6H-pyrrolo[2,3-c]-1,7-naphthyridin-6-one]: the pIC50 in assay [1] was 8.05. Besides, the pEC50 in assay [2] was 9.30.
On the same counts, the results for `CN(Cc1cn(Cc2ccc(F)cc2)c2cnc3c(c12)CCN(O)C3=O)CC(F)(F)F` [Example 73, 3-(4-fluorobenzyl)-7-hydroxy-1-{[methyl(2,2,2-trifluoroethyl)amino]methyl}-3,7,8,9-tetrahydro-6H-pyrrolo[2,3-c]-1,7-naphthyridin-6-one] are 8.15 and 9.40.
The corresponding values for `CCCOCCOCc1cn(Cc2ccc(F)cc2)c2cnc3c(c12)CCN(O)C3=O` [Example 75, 3-(4-fluorobenzyl)-7-hydroxy-1-[(2-propoxyethoxy)methyl]-3,7,8,9-tetrahydro-6H-pyrrolo[2,3-c]-1,7-naphthyridin-6-one] are 7.77 and 9.15.
The corresponding values for `Cc1cccc(COCc2cn(Cc3ccc(F)cc3)c3cnc4c(c23)CCN(O)C4=O)n1` [Example 78, 3-(4-fluorobenzyl)-7-hydroxy-1-{[(6-methylpyridin-2-yl)methoxy]methyl}-3,7,8,9-tetrahydro-6H-pyrrolo[2,3-c]-1,7-naphthyridin-6-one] are 7.96 and 9.22.
As to `O=C1c2ncc3c(c(COCC4CCC4)cn3Cc3ccc(F)cc3)c2CCN1O` [Example 79, 1-[(cyclobutylmethoxy)methyl]-3-(4-fluorobenzyl)-7-hydroxy-3,7,8,9-tetrahydro-6H-pyrrolo[2,3-c]-1,7-naphthyridin-6-one], the pIC50 in assay [1] was 8.00. Further, the pEC50 in assay [2] is 9.00.
Consider `CC(C)N(CCOCc1cn(Cc2ccc(F)cc2)c2cnc3c(c12)CCN(O)C3=O)C(C)C` [Example 80, 1-{[2-(diisopropylamino)ethoxy]methyl}-3-(4-fluorobenzyl)-7-hydroxy-3,7,8,9-tetrahydro-6H-pyrrolo[2,3-c]-1,7-naphthyridin-6-one], for which the pIC50 in assay [1] is 7.64. In addition, the pEC50 in assay [2] is 7.92.
The corresponding values for `O=C1c2ncc3c(c(CNCC(F)F)cn3Cc3ccc(F)cc3)c2CCN1O` [Example 81, 1-{[(2,2-difluoroethyl)amino]methyl}-3-(4-fluorobenzyl)-7-hydroxy-3,7,8,9-tetrahydro-6H-pyrrolo[2,3-c]-1,7-naphthyridin-6-one] are 8.10 and 9.49.
Take `CCCCOCCOCc1cn(Cc2ccc(F)cc2)c2cnc3c(=O)n(O)ccc3c12` [Example 82, 1-[(2-butoxyethoxy)methyl]-3-(4-fluorobenzyl)-7-hydroxy-3,7-dihydro-6H-pyrrolo[2,3-c]-1,7-naphthyridin-6-one]: the pIC50 in assay [1] was 8.00. In assay [2], the pEC50 is 9.43.
On the same counts, the results for `N#Cc1ccccc1Cn1ccc2c3c(ncc21)C(=O)N(O)CC3` [Example 84, 2-[(7-hydroxy-6-oxo-6,7,8,9-tetrahydro-3H-pyrrolo[2,3-c]-1,7-naphthyridin-3-yl)methyl]benzonitrile] are 6.90 and 7.49.
